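Grown in 96-well plates, cells were treated for 48 hours with each compound at five concentrations. Insufficient inhibition: endpoint recorded as highest concentration tested. Abbreviation: GI50, concentration required for 50% inhibition of growth. TGI: total growth inhibition.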
How the values were obtained:
Test in all cases: DTP human tumour cell line panel, 48 h
[1] = tested on: 786-0 renal
[2] = tested on: A498 renal
[3] = tested on: A549 NSCLC
[4] = tested on: ACHN renal
[5] = tested on: BT-549 breast
[6] = tested on: CAKI-1 renal
[7] = tested on: CCRF-CEM leukemia
[8] = tested on: COLO 205 colon
[9] = tested on: DU-145 prostate
[10] = tested on: EKVX NSCLC
[11] = tested on: HCC-2998 colon
[12] = tested on: HCT-116 colon
[13] = tested on: HCT-15 colon
[14] = tested on: HL-60(TB) leukemia
[15] = tested on: HOP-62 NSCLC
[16] = tested on: HOP-92 NSCLC
[17] = tested on: HS 578T breast
[18] = tested on: HT29 colon
[19] = tested on: IGROV1 ovarian
[20] = tested on: K-562 leukemia
[21] = tested on: KM12 colon
[22] = tested on: M14 melanoma
[23] = tested on: MALME-3M melanoma
[24] = tested on: MCF7 breast
[25] = tested on: MDA-MB-231 breast
[26] = tested on: MDA-MB-435
[27] = tested on: MOLT-4 leukemia
[28] = tested on: NCI-H226 lung

SMILES: COc1ccc(Cn2cc3c(c2-c2cc(OC)c(OC)c(OC)c2)CCc2c(CN4CCCC4)noc2-3)cc1
- GI50 [1]: 997 nM
- TGI [1]: 21900 nM
- GI50 [2]: 780 nM
- TGI [2]: 6380 nM
- GI50 [3]: 1330 nM
- TGI [3]: > 100000 nM
- GI50 [4]: 634 nM
- TGI [4]: 36500 nM
- GI50 [5]: 2470 nM
- TGI [5]: 14300 nM
- GI50 [6]: 451 nM
- TGI [6]: 20200 nM
- GI50 [7]: 727 nM
- TGI [7]: > 100000 nM
- GI50 [8]: 941 nM
- TGI [8]: 5490 nM
- GI50 [9]: 4000 nM
- TGI [9]: > 100000 nM
- GI50 [10]: 2110 nM
- TGI [10]: > 100000 nM
- GI50 [11]: 1840 nM
- TGI [11]: 14600 nM
- GI50 [12]: 466 nM
- TGI [12]: 14900 nM
- GI50 [13]: 475 nM
- TGI [13]: 12100 nM
- GI50 [14]: 317 nM
- TGI [14]: 1280 nM
- GI50 [15]: 1410 nM
- TGI [15]: 32600 nM
- GI50 [16]: 1350 nM
- TGI [16]: 12000 nM
- GI50 [17]: 1800 nM
- TGI [17]: 27300 nM
- GI50 [18]: 398 nM
- TGI [18]: 12600 nM
- GI50 [19]: 892 nM
- TGI [19]: > 100000 nM
- GI50 [20]: 348 nM
- TGI [20]: 16600 nM
- GI50 [21]: 12600 nM
- TGI [21]: 81200 nM
- GI50 [22]: 582 nM
- TGI [22]: 10600 nM
- GI50 [23]: 496 nM
- TGI [23]: 21400 nM
- GI50 [24]: 325 nM
- TGI [24]: 20000 nM
- GI50 [25]: 3050 nM
- TGI [25]: 15200 nM
- GI50 [26]: 239 nM
- TGI [26]: 595 nM
- GI50 [27]: 1470 nM
- TGI [27]: 32800 nM
- GI50 [28]: 2070 nM
- TGI [28]: 30300 nM
